Measurements: article PMC7226989, “Establishment of an in Vitro Human Blood-Brain Barrier Model Derived from Induced Pluripotent Stem Cells and Comparison to a Porcine Cell-Based System” (Cells, 2020)
Like-named read-outs stand apart in the source and are kept apart here.

Assays:
[1] = Permeability assay across hiPSC-derived BMECs clone 2 on Transwell, co-culture with human astrocytes
hiPSC-derived BMECs [2] = assay: Human BBB model permeability, clone not specified or both clones; settings: for Permeability classification in words: human BBB model, for several compounds stated for both human and porcine models
[3] = tested on: hiPSC-derived BMECs (r-iSPC 1j cells); design: method as in Delsing et al. 34; settings: ref Delsing et al. 34; cited from earlier work
in vitro [4] = settings: human
[5] = tested on: hiPSC-derived BMECs (IMR-90); settings: cited from earlier work
in vitro [6] = settings: human; remark: listed apart in the source
hiPSC-derived BMECs [7] = tested on: hiPSC-derived BMECs
[8] = tested on: hiPSC-derived BMECs (Cl1)
[9] = tested on: hiPSC-derived BMECs (Cl1); assay: Permeability assay across hiPSC-derived BMECs clone 1 on Transwell, co-culture with human astrocytes
[10] = tested on: primary porcine brain endothelial cells (PBECs); settings: cited from earlier work
[11] = tested on: primary porcine brain endothelial cells (PBECs); assay: Porcine BBB model transport assay; settings: porcine vs human
[12] = tested on: hiPSC-derived BMECs (Cl2)
[13] = Permeability assay across hiPSC-derived BMECs clone 1 on Transwell, co-culture with human astrocytes
[14] = Human BBB model permeability, clone not specified or both clones; settings: human
hiPSC-derived BMECs [15] = settings: ref Lippmann 6; cited from earlier work
[16] = tested on: human endothelial cell line hCMEC/D3; design: method as in PMID 30374619; settings: cited from earlier work

## N[C@@H](Cc1ccccc1)C(=O)O [phenylalanine]
[1]
  Papp: 28.6 ± 5.7 ×10⁻⁶ cm/s
hiPSC-derived BMECs [2]; human vs porcine
  Fold higher permeability in the human than in the porcine model: two-fold

## CC(C)NCC(O)COc1cccc2ccccc12 (stereo not shown) [propranolol]
[3]
  Published permeability: 22.6 ×10⁻⁶ cm/s
In vitro [4]
  Papp: 22 to 26 ×10⁻⁶ cm/s
[1]
  Papp: 22 ± 2.4 ×10⁻⁶ cm/s
[5]; ref Mantle et al. 35
  Published permeability: around 30 × 10^−6 cm/s
In vitro [6]; Permeability human BBB_Cl1
  Papp: 25.8 ± 4.6 ×10⁻⁶ cm/s
hiPSC-derived BMECs [7]
  Permeability classification in words: highly permeable

## CC(C)C[C@H](N)C(=O)O [leucine]
[8]
  Vectorial transport, AB direction over BA direction: three-fold
In vitro [4]
  Papp: 18 to 20 ×10⁻⁶ cm/s
[1]
  Papp: 19.9 ± 6.4 ×10⁻⁶ cm/s
In vitro [6]
  Papp A→B: 18.5 ± 2.2 ×10⁻⁶ cm/s
  Papp B→A: 6.4 ± 0.7 ×10⁻⁶ cm/s
In vitro [6]; Permeability human BBB_Cl1
  Papp: 18 ± 1.8 ×10⁻⁶ cm/s
[9]; 10 µM JPH203, selective LAT1 inhibitor
  Reduction of transport in the presence of JPH203: about 70%
hiPSC-derived BMECs [7]
  Fold higher permeability in the human than in the porcine model: about three-fold
  Permeability classification in words: highly permeable

## OC[C@H]1OC(O)[C@H](O)[C@@H](O)[C@@H]1O (stereo partly shown) [glucose]
[10]
  Permeability in the porcine model: 7 ×10⁻⁶ cm/s
[1]
  Papp: 25.2 ± 7.9 ×10⁻⁶ cm/s
In vitro [6]; Permeability human BBB_Cl1
  Papp: 25 ± 2.7 ×10⁻⁶ cm/s
[9]; 200 µM phloretin
  Inhibition of transport by phloretin: ~80%
hiPSC-derived BMECs [7]; human and pig
  Fold higher permeability in the human than in the porcine model: more than 3.5

## CC[C@]1(O)C[C@@H]2CN(CCc3c([nH]c4ccccc34)[C@@](C(=O)OC)(c3cc4c(cc3OC)N(C)[C@H]3[C@@](O)(C(=O)OC)[C@H](OC(C)=O)[C@]5(CC)C=CCN6CC[C@]43[C@@H]65)C2)C1 [vinblastine]
[1]
  Papp: 3.5 ± 0.8 ×10⁻⁶ cm/s
In vitro [6]
  efflux ratio: 1.5
In vitro [6]; Permeability human BBB_Cl1
  Papp: 4.1 ± 0.4 ×10⁻⁶ cm/s
hiPSC-derived BMECs [7]
  Fold higher permeability in the human than in the porcine model: two-fold
  Permeability classification in words: medium permeability

## CN(Cc1cnc2nc(N)nc(N)c2n1)c1ccc(C(=O)N[C@@H](CCC(=O)O)C(=O)O)cc1 [methotrexate]
[11]
  Fold higher permeability in the porcine than in the human model: eight times
[1]
  Papp: 0.77 ± 0.1 ×10⁻⁶ cm/s
In vitro [6]; Permeability human BBB_Cl1
  Papp: 0.65 ± 0.12 ×10⁻⁶ cm/s

## COc1cccc2c1C(=O)c1c(O)c3c(c(O)c1C2=O)C[C@@](O)(C(C)=O)C[C@@H]3O[C@H]1C[C@H](N)[C@H](O)[C@H](C)O1 [daunomycin]
In vitro [4]
  Papp: 7 to 9 ×10⁻⁶ cm/s
[1]
  Papp: 6.5 ± 0.7 ×10⁻⁶ cm/s
In vitro [6]; Permeability human BBB_Cl1
  Papp: 9.3 ± 2.7 ×10⁻⁶ cm/s
hiPSC-derived BMECs [7]
  Fold higher permeability in the human than in the porcine model: two-fold
  Permeability classification in words: medium permeability

## lucifer yellow
[8]
  Permeability A-B: 0.15 ± 0.001 x10^-6 cm/s
  Permeability B-A: 0.13 ± 0.004 x10^-6 cm/s
  Permeability fresh: 0.21 ± 0.12 x10^-6 cm/s
  Permeability frozen: 0.09 ± 0.04 x10^-6 cm/s
  Permeability human BBB_Cl1: 0.18 ± 0.11 x10^-6 cm/s
  efflux ratio: 0.9
[12]
  Permeability human BBB_Cl2: 0.33 ± 0.30 x10^-6 cm/s

## O=C1NC(=O)C(c2ccccc2)(c2ccccc2)N1 [phenytoin]
[3]
  Published permeability: 35.6 ×10⁻⁶ cm/s
[1]
  Papp: 18.6 ± 0.9 ×10⁻⁶ cm/s
[13]; human, Permeability human BBB_Cl1, Figure 5C, mean ± sd
  Papp: 21.3 ± 2.1 ×10⁻⁶ cm/s
hiPSC-derived BMECs [2]
  Permeability classification in words: highly permeable
[14]
  Papp: 19 to 21 ×10⁻⁶ cm/s

## CCC(=O)CCCCCC(NC(=O)C1CN(C)C1)c1ncc(-c2cc3ccccc3nc2OC)o1 (stereo not shown) [cpK]
[10]
  Permeability porcine BBB: 10.5 ± 3.4 x10^-6 cm/s
hiPSC-derived BMECs [2]
  Permeability classification in words: medium permeability
[14]
  Papp: 15.4 ± 8.3 ×10⁻⁶ cm/s

## OC[C@@H](O)[C@@H](O)[C@H](O)[C@H](O)CO [mannitol]
[1]
  Papp: 0.8 ± 0.1 ×10⁻⁶ cm/s
In vitro [6]; Permeability fresh
  Papp: 0.56 ± 0.28 ×10⁻⁶ cm/s
In vitro [6]; Permeability frozen
  Papp: 0.67 ± 0.25 ×10⁻⁶ cm/s
In vitro [6]; Permeability human BBB_Cl1
  Papp: 0.6 ± 0.24 ×10⁻⁶ cm/s

## COc1cc2nc(N3CCN(C(=O)c4ccco4)CC3)nc(N)c2cc1OC [prazosin]
[5]; ref Kurosawa 20
  Published permeability: 8.7 ×10⁻⁶ cm/s
hiPSC-derived BMECs [15]
  Published permeability: 4.3 ×10⁻⁶ cm/s

## C[C@H]1O[C@@H](O[C@H]2[C@@H](O)C[C@H](O[C@H]3[C@@H](O)C[C@H](O[C@H]4CC[C@@]5(C)[C@H](CC[C@@H]6[C@@H]5C[C@@H](O)[C@]5(C)[C@@H](C7=CC(=O)OC7)CC[C@]65O)C4)O[C@@H]3C)O[C@@H]2C)C[C@H](O)[C@@H]1O [digoxin]
In vitro [6]
  Papp B→A: 7.3 ± 0.6 ×10⁻⁶ cm/s

## CC(C)C[C@H](CN)CC(=O)O [pregabalin]
[16]
  Inhibition in the uptake after LAT-1 mRNA silencing: 75%

## CC(=O)O[C@H]1C(=O)[C@@]2(C)[C@H]([C@H](OC(=O)c3ccccc3)[C@]3(O)C[C@H](OC(=O)[C@H](O)[C@@H](NC(=O)c4ccccc4)c4ccccc4)C(C)=C1C3(C)C)[C@]1(OC(C)=O)CO[C@@H]1C[C@@H]2O [taxol]
[1]
  Papp: 4.9 ± 1 ×10⁻⁶ cm/s
In vitro [6]
  Papp A→B: 6.3 ± 0.6 ×10⁻⁶ cm/s
  Papp B→A: 15.4 ± 0.5 ×10⁻⁶ cm/s
  efflux ratio: 2.4
In vitro [6]; Permeability human BBB_Cl1
  Papp: 6.8 ± 0.7 ×10⁻⁶ cm/s

## NCC1(CC(=O)O)CCCCC1 [gabapentin]
In vitro [4]
  Papp: 12 ×10⁻⁶ cm/s
[13]; human
  Papp: 11.9 ± 2.9 ×10⁻⁶ cm/s
hiPSC-derived BMECs [2]
  Permeability classification in words: moderate to high permeability

## O=C(O)c1cc(=O)c2ccccc2[nH]1 [kynurenic acid]
[10]; porcine model
  Permeability in porcine (unit not given): 2.8
In vitro [4]
  Papp: 0.3 ×10⁻⁶ cm/s
In vitro [6]; Permeability human BBB_Cl1
  Papp: 0.32 ± 0.06 ×10⁻⁶ cm/s
hiPSC-derived BMECs [7]
  Permeability classification in words: low permeability

## CC(C)[C@H](NC(=O)[C@H](CCC(=O)O)NC(=O)[C@H](Cc1ccccc1)NC(=O)[C@@H](C)NC(=O)[C@@H](N)Cc1ccc(O)cc1)C(=O)N[C@H](C(=O)NCC(N)=O)C(C)C [[D-Ala2]deltorphin II]
[11]
  Fold higher permeability in the porcine than in the human model: two-fold
[13]
  Papp: 3.8 ± 0.5 ×10⁻⁶ cm/s
hiPSC-derived BMECs [2]
  Permeability classification in words: moderate permeability
other
  Papp: 7.7 ± 1.7 ×10⁻⁶ cm/s

## Cn1c(=O)c2c(ncn2C)n(C)c1=O [caffeine]
In vitro [4]
  Papp: 27 to 31 ×10⁻⁶ cm/s
[1]
  Papp: 26.5 ± 0.6 ×10⁻⁶ cm/s
[5]; IMR-90 cells, ref Appelt-Menzel et al. 36
  Published permeability: 25.3 ×10⁻⁶ cm/s
In vitro [6]; Permeability human BBB_Cl1
  Papp: 30.7 ± 2 ×10⁻⁶ cm/s
hiPSC-derived BMECs [7]
  Permeability classification in words: highly permeable
